Measurements from the supplement of paper PMC10307832.

Legend:
Experiment in all cases: relative viability (nuclei count vs DMSO), 5 days (fraction); higher = more cells survive
[1] = system: NCI-H2085
Method in brief: (§1)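 A single step with final 0.05% Triton X-100, 1% formaldehyde and 1 ug/ml Hoechst fixed the cells and stained nuclei 5 days after treatment. Lung cancer cell lines in 1536-well plates had been treated by pin tool the day after seeding with one drug alone or a fixed anchor-drug dose plus five library-drug doses (not always all listed) in √10 steps, and nuclei were counted on 4× images. Relative viability is the ratio of nuclei in treated wells to nuclei in vehicle wells, taken as the median of duplicate plates.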

[2] = system: ChaGo-K-1
Method in brief: as §1

[3] = system: ABC-1
Method in brief: as §1

[4] = system: HOP-62
Method in brief: as §1

[5] = system: NCI-H727
Method in brief: as §1

[6] = system: NCI-H1755
Method in brief: as §1

[7] = system: NCI-H322M
Method in brief: as §1

[8] = system: NCI-H2009
Method in brief: as §1

[9] = system: UMC-11
Method in brief: as §1

[10] = system: LCLC-97TM1
Method in brief: as §1

[11] = system: RERF-LC-KJ
Method in brief: as §1

[12] = system: NCI-H1437
Method in brief: as §1

[13] = system: LOU-NH91
Method in brief: as §1

[14] = system: NCI-H23
Method in brief: as §1

[15] = system: NCI-H650
Method in brief: as §1

[16] = system: NCI-H2405
Method in brief: as §1

[17] = system: NCI-H2023
Method in brief: as §1

[18] = system: NCI-H1355
Method in brief: as §1

[19] = system: HCC-78
Method in brief: as §1

[20] = system: NCI-H1792
Method in brief: as §1

Question: `CCCCCCCCCCCC1=C(O)C(=O)C=C(O)C1=O` [Embelin] + CC(C)C[C@H](NC(=O)[C@H](Cc1ccccc1)NC(=O)c1cnccn1)B(O)O [Bortezomib] (partner 0.002 µM) was tested. Which relative viability ([1]; first compound 0.08 µM) did it give?
Answer: Its relative viability is 0.989.

Question: And the relative viability ([1]; first compound 0.8 µM)?
Answer: Its relative viability is 1.07.

Question: And the relative viability ([1]; first compound 2.53 µM)?
Answer: The relative viability was 1.07.

Question: What about the relative viability ([1]; first compound 8 µM) of the same compound?
Answer: Its relative viability is 1.03.

Question: What about the relative viability ([2]; first compound 0.08 µM) of the same compound?
Answer: Its relative viability is 0.988.

Question: And the relative viability ([2]; first compound 0.8 µM)?
Answer: The relative viability was 1.37.

Question: And the relative viability ([2]; first compound 2.53 µM)?
Answer: The relative viability was 0.946.

Question: What about the relative viability ([2]; first compound 8 µM) of the same compound?
Answer: Its relative viability is 0.793.

Question: What about the relative viability ([3]; first compound 0.08 µM) of the same compound?
Answer: The relative viability was 0.299.

Question: What about the relative viability ([3]; first compound 0.8 µM) of the same compound?
Answer: Its relative viability is 0.371.

Question: And the relative viability ([3]; first compound 2.53 µM)?
Answer: The relative viability was 0.252.

Question: What about the relative viability ([3]; first compound 8 µM) of the same compound?
Answer: The relative viability was 0.257.

Question: What about the relative viability ([4]; first compound 0.08 µM) of the same compound?
Answer: The relative viability was 0.924.

Question: What about the relative viability ([4]; first compound 0.8 µM) of the same compound?
Answer: Its relative viability is 0.846.

Question: And the relative viability ([4]; first compound 2.53 µM)?
Answer: The relative viability was 1.15.

Question: What about the relative viability ([4]; first compound 8 µM) of the same compound?
Answer: The relative viability was 0.727.

Question: And the relative viability ([5]; first compound 0.08 µM)?
Answer: The relative viability was 0.813.

Question: What about the relative viability ([5]; first compound 0.8 µM) of the same compound?
Answer: The relative viability was 0.997.

Question: What about the relative viability ([5]; first compound 2.53 µM) of the same compound?
Answer: Its relative viability is 1.02.

Question: What about the relative viability ([5]; first compound 8 µM) of the same compound?
Answer: Its relative viability is 0.798.

Question: And the relative viability ([6]; first compound 0.08 µM)?
Answer: Its relative viability is 0.987.

Question: And the relative viability ([6]; first compound 0.8 µM)?
Answer: The relative viability was 1.07.

Question: And the relative viability ([6]; first compound 2.53 µM)?
Answer: Its relative viability is 0.971.

Question: What about the relative viability ([6]; first compound 8 µM) of the same compound?
Answer: The relative viability was 0.917.

Question: And the relative viability ([7]; first compound 0.08 µM)?
Answer: The relative viability was 1.21.

Question: What about the relative viability ([7]; first compound 0.8 µM) of the same compound?
Answer: Its relative viability is 1.34.

Question: What about the relative viability ([7]; first compound 2.53 µM) of the same compound?
Answer: Its relative viability is 1.44.

Question: What about the relative viability ([7]; first compound 8 µM) of the same compound?
Answer: The relative viability was 1.29.

Question: What about the relative viability ([8]; first compound 0.08 µM) of the same compound?
Answer: Its relative viability is 1.07.

Question: What about the relative viability ([8]; first compound 0.8 µM) of the same compound?
Answer: Its relative viability is 1.18.

Question: And the relative viability ([8]; first compound 2.53 µM)?
Answer: The relative viability was 0.916.

Question: And the relative viability ([8]; first compound 8 µM)?
Answer: The relative viability was 0.9.

Question: And the relative viability ([9]; first compound 0.08 µM)?
Answer: Its relative viability is 0.771.

Question: And the relative viability ([9]; first compound 0.8 µM)?
Answer: The relative viability was 0.966.

Question: And the relative viability ([9]; first compound 2.53 µM)?
Answer: Its relative viability is 0.896.

Question: And the relative viability ([9]; first compound 8 µM)?
Answer: Its relative viability is 0.547.

Question: And the relative viability ([10]; first compound 0.08 µM)?
Answer: Its relative viability is 0.812.

Question: What about the relative viability ([10]; first compound 0.8 µM) of the same compound?
Answer: The relative viability was 0.774.

Question: What about the relative viability ([10]; first compound 2.53 µM) of the same compound?
Answer: Its relative viability is 0.29.

Question: What about the relative viability ([10]; first compound 8 µM) of the same compound?
Answer: Its relative viability is 0.907.

Question: And the relative viability ([11]; first compound 0.08 µM)?
Answer: The relative viability was 0.984.

Question: And the relative viability ([11]; first compound 0.8 µM)?
Answer: Its relative viability is 1.31.

Question: What about the relative viability ([11]; first compound 2.53 µM) of the same compound?
Answer: Its relative viability is 1.3.

Question: What about the relative viability ([11]; first compound 8 µM) of the same compound?
Answer: Its relative viability is 1.19.

Question: And the relative viability ([12]; first compound 0.08 µM)?
Answer: The relative viability was 0.602.

Question: And the relative viability ([12]; first compound 0.8 µM)?
Answer: Its relative viability is 0.528.

Question: And the relative viability ([12]; first compound 2.53 µM)?
Answer: Its relative viability is 0.618.

Question: And the relative viability ([12]; first compound 8 µM)?
Answer: Its relative viability is 0.347.

Question: And the relative viability ([13]; first compound 0.08 µM)?
Answer: The relative viability was 0.554.

Question: What about the relative viability ([13]; first compound 0.8 µM) of the same compound?
Answer: Its relative viability is 0.578.

Question: What about the relative viability ([13]; first compound 2.53 µM) of the same compound?
Answer: The relative viability was 0.504.

Question: What about the relative viability ([13]; first compound 8 µM) of the same compound?
Answer: Its relative viability is 0.509.

Question: What about the relative viability ([14]; first compound 0.08 µM) of the same compound?
Answer: The relative viability was 0.971.

Question: What about the relative viability ([14]; first compound 0.8 µM) of the same compound?
Answer: The relative viability was 1.06.

Question: What about the relative viability ([14]; first compound 2.53 µM) of the same compound?
Answer: Its relative viability is 1.19.

Question: What about the relative viability ([14]; first compound 8 µM) of the same compound?
Answer: The relative viability was 1.23.

Question: And the relative viability ([15]; first compound 0.08 µM)?
Answer: Its relative viability is 0.64.

Question: What about the relative viability ([15]; first compound 0.8 µM) of the same compound?
Answer: The relative viability was 1.

Question: What about the relative viability ([15]; first compound 2.53 µM) of the same compound?
Answer: Its relative viability is 0.668.

Question: And the relative viability ([15]; first compound 8 µM)?
Answer: The relative viability was 0.453.

Question: What about the relative viability ([16]; first compound 0.08 µM) of the same compound?
Answer: Its relative viability is 1.03.

Question: And the relative viability ([16]; first compound 0.8 µM)?
Answer: Its relative viability is 1.03.

Question: And the relative viability ([16]; first compound 2.53 µM)?
Answer: The relative viability was 1.02.

Question: And the relative viability ([16]; first compound 8 µM)?
Answer: Its relative viability is 1.01.

Question: And the relative viability ([17]; first compound 0.08 µM)?
Answer: The relative viability was 0.915.

Question: What about the relative viability ([17]; first compound 0.8 µM) of the same compound?
Answer: Its relative viability is 1.12.

Question: What about the relative viability ([17]; first compound 2.53 µM) of the same compound?
Answer: Its relative viability is 1.07.

Question: And the relative viability ([17]; first compound 8 µM)?
Answer: Its relative viability is 0.578.

Question: And the relative viability ([18]; first compound 0.08 µM)?
Answer: The relative viability was 1.16.

Question: And the relative viability ([18]; first compound 0.8 µM)?
Answer: The relative viability was 1.24.

Question: And the relative viability ([18]; first compound 2.53 µM)?
Answer: The relative viability was 1.21.

Question: And the relative viability ([18]; first compound 8 µM)?
Answer: The relative viability was 1.02.

Question: What about the relative viability ([19]; first compound 0.08 µM) of the same compound?
Answer: Its relative viability is 0.605.

Question: And the relative viability ([19]; first compound 0.8 µM)?
Answer: The relative viability was 0.532.

Question: And the relative viability ([19]; first compound 2.53 µM)?
Answer: Its relative viability is 0.555.

Question: What about the relative viability ([19]; first compound 8 µM) of the same compound?
Answer: Its relative viability is 0.438.

Question: And the relative viability ([20]; first compound 0.08 µM)?
Answer: Its relative viability is 0.93.

Question: And the relative viability ([20]; first compound 0.8 µM)?
Answer: Its relative viability is 1.

Question: What about the relative viability ([20]; first compound 2.53 µM) of the same compound?
Answer: The relative viability was 1.09.

Question: And the relative viability ([20]; first compound 8 µM)?
Answer: Its relative viability is 1.03.
